From US12661345B2, “Compositions for the treatment of hypertension” (The George Institute for Global Health, priority 2017, dated 2026)
Read-outs that look alike come from different tables or passages of the source.

Test system: participants with migraine
Conditions: human, in vivo
Text: Difference between groups in participant withdrawals from treatment • 2.

In the case of `CC(C)NCC(O)COc1cccc2ccccc12` (centres unmarked) [Propranolol, propranolol], the “Discontinuing the study (n/N)” value (4 week) is reported as 0/10, the “Discontinuing the study (percent)” value (4 week) is reported as “(0.0%)” and the “Discontinuing the study (n/N)” value (8 week) is reported as 0/10. For the same compound, the “Discontinuing the study (percent)” value (8 week) was “(0.0%)”, the “Discontinuing the study (n/N)” value (12 week) was 0/10 and the “Discontinuing the study (percent)” value (12 week) was “(0.0%)”. For the same compound, the “Deceased (n/N)” value (16 week) was 0/10 and the “Deceased (percent)” value (16 week) was “(0.0%)”.
